{"source": "patent US20060069132A1", "about": "“Azolecarboxamide herbicides” (priority 2004, published 2006)", "key": {"winter barley": {"test_system": "winter barley", "assay": "Test F pre-/postemergence herbicide test", "assay_type": "in vivo, Hordeum vulgare", "details": "125 g ai/ha", "excerpt": "(§1) Seeds of plant species selected from annual blugrass (Poa annua L.), blackgrass (Alopecurus myosuroides Huds.), catchweed bedstraw (Gallium aparine L.), common chickweed (Stellaria media (L.) Vill./Cyr.), downy bromegrass (Bromus tectorum L.), green foxtail (Setaria viridis (L.) Beauv.), Italian ryegrass (Lolium multiflorum Lam.), kochia (Kochia scoparia (L.). Schrad.), lambsquarters (Chenopodium album L.), littleseed canarygrass (Phalaris minor Retz.), pigweed (Amaranthus retroflexus L.), Russian thistle (Salsola kali L. ssp. Ruthenica (Iljin) Soo), wild buckwheat (Polygonum convolvulus L.), wild mustard (Sinapis arvensis L.), wild oat (Avena fatua L.), windgrass (Apera spica-venti (L.) Beauv.), winter barley (Hordeum vulgare L.), and wheat (Triticum aestivum L.) were planted and treated preemergence with test chemicals formulated in a non-phytotoxic solvent mixture which included a surfactant.\n(§2) At the same time, plants selected from these crop and weed species were treated with postemergence applications of some of the test chemicals formulated in the same manner. Plants ranged in height from 2 to 18 cm (1- to 4-leaf stage) for postemergence treatments. Treated plants and controls were maintained in a greenhouse for 12 to 14 days, after which time all species were compared to controls and visually evaluated. Plant response ratings, summarized in Table F, are based on a scale of 0 to 100 where 0 is no effect and 100 is complete control. A dash (-) response means no test result."}, "wheat": {"test_system": "wheat", "assay": "Test F pre-/postemergence herbicide test", "assay_type": "in vivo, Triticum aestivum", "details": "125 g ai/ha", "excerpt": "as §1, §2"}, "blackgrass": {"test_system": "blackgrass", "assay": "Test F pre-/postemergence herbicide test", "assay_type": "in vivo, Alopecurus myosuroides", "details": "125 g ai/ha", "excerpt": "as §1, §2"}, "annual blugrass": {"test_system": "annual blugrass", "assay": "Test F pre-/postemergence herbicide test", "assay_type": "in vivo, Poa annua", "details": "125 g ai/ha", "excerpt": "as §1, §2"}, "green foxtail": {"test_system": "green foxtail", "assay": "Test F pre-/postemergence herbicide test", "assay_type": "in vivo, Setaria viridis", "details": "125 g ai/ha", "excerpt": "as §1, §2"}, "downy bromegrass": {"test_system": "downy bromegrass", "assay": "Test F pre-/postemergence herbicide test", "assay_type": "in vivo, Bromus tectorum", "details": "125 g ai/ha", "excerpt": "as §1, §2"}, "catchweed bedstraw": {"test_system": "catchweed bedstraw", "assay": "Test F pre-/postemergence herbicide test", "assay_type": "in vivo, Gallium aparine", "details": "125 g ai/ha", "excerpt": "as §1, §2"}, "wild mustard": {"test_system": "wild mustard", "assay": "Test F pre-/postemergence herbicide test", "assay_type": "in vivo, Sinapis arvensis", "details": "125 g ai/ha", "excerpt": "as §1, §2"}, "littleseed canarygrass": {"test_system": "littleseed canarygrass", "assay": "Test F pre-/postemergence herbicide test", "assay_type": "in vivo, Phalaris minor", "details": "125 g ai/ha", "excerpt": "as §1, §2"}, "common chickweed": {"test_system": "common chickweed", "assay": "Test F pre-/postemergence herbicide test", "assay_type": "in vivo, Stellaria media", "details": "125 g ai/ha", "excerpt": "as §1, §2"}, "kochia": {"test_system": "kochia", "assay": "Test F pre-/postemergence herbicide test", "assay_type": "in vivo, Kochia scoparia", "details": "125 g ai/ha", "excerpt": "as §1, §2"}, "lambsquarters": {"test_system": "lambsquarters", "assay": "Test F pre-/postemergence herbicide test", "assay_type": "in vivo, Chenopodium album", "details": "125 g ai/ha", "excerpt": "as §1, §2"}, "wheat cv. Retical": {"test_system": "wheat cv. Retical", "assay": "Test H safening on wheat by naphthalic anhydride seed treatment, pre-/postemergence", "assay_type": "in vivo, Triticum aestivum", "parameters": "key to Response of wheat, Without naphthalic anhydride seed treatment: 0 = no effect, 100 = complete plant death, vs untreated control", "method": "This test evaluated the safening of compounds of the invention on wheat (Triticum aestivumL.) cv. ‘Retical’ by seed treatment with naphthalic anhydride. Some of the wheat seed was treated with napthalic anhydride as a 1% by weight seed dressing. The wheat seed were planted in pots containing pasteurized Sassafras sandy loam soil. For postemergence testing the plants were grown 8 days to the 2-leaf stage at time of treatment. Preemergence treatments were applied the same day that the seeds were planted. Treatments were applied by spraying the test compounds formulated in a non-phytotoxic solvent mixture, using a flat fan nozzle and a spray volume of 280 L/ha. The preemergence treatments were triply replicated and the results subsequently averaged. The pots were placed on a growth chamber bench using a complete randomized block design for the preemergence test except for the first replicate, which was unrandomized. The plants were grown in the growth chamber and watered as needed with a dilute nutrient solution containing 200 ppm of N. Illumination was provided by fluorescent lamps giving 200-300 μE/m^2/S of photosynthetically active radiation over a 14-hour photoperiod. The temperature was maintained at 23±2° C. during the day and 17±2° C. at night. The effects of the treatments were rated 25 days after preemergence treatment and 14 days after postemergence treatment. The plant response was visually rated in comparison to untreated controls using a scale of 0 to 100, with 0 representing no effect and 100 representing complete plant death. The results for the compounds tested preemergence are listed in Table H1, and the results for the compounds tested postemergence are listed in Table H2."}}, "data": [{"smiles": "CCc1nn(C(C)(C)C)cc1C(=O)Nc1cc(C(=O)N(CC)CC)ccc1F", "note": "[Compound 223]", "values": [{"measurement": "Plant response rating (0-100), Barley, Winter", "setting": "winter barley; Postemergence", "result": 0}, {"measurement": "Plant response rating (0-100), Barley, Winter", "setting": "winter barley; Preemergence", "result": 25}, {"measurement": "Plant response rating (0-100), Wheat", "setting": "wheat; Postemergence", "result": 0}, {"measurement": "Plant response rating (0-100), Wheat", "setting": "wheat; Preemergence", "result": 0}, {"measurement": "Plant response rating (0-100), Blackgrass", "setting": "blackgrass; Postemergence", "result": 60}, {"measurement": "Plant response rating (0-100), Blackgrass", "setting": "blackgrass; Preemergence", "result": 70}, {"measurement": "Plant response rating (0-100), Bluegrass", "setting": "annual blugrass; Postemergence", "result": 50}, {"measurement": "Plant response rating (0-100), Bluegrass", "setting": "annual blugrass; Preemergence", "result": 100}, {"measurement": "Plant response rating (0-100), Foxtail, Green", "setting": "green foxtail; Postemergence", "result": 60}, {"measurement": "Plant response rating (0-100), Foxtail, Green", "setting": "green foxtail; Preemergence", "result": 55}, {"measurement": "Plant response rating (0-100), Bromegrass, Downy", "setting": "downy bromegrass; Postemergence", "result": 20}, {"measurement": "Plant response rating (0-100), Bromegrass, Downy", "setting": "downy bromegrass; Preemergence", "result": 50}, {"measurement": "Plant response rating (0-100), Galium", "setting": "catchweed bedstraw; Postemergence", "result": 60}, {"measurement": "Plant response rating (0-100), Galium", "setting": "catchweed bedstraw; Preemergence", "result": 50}, {"measurement": "Plant response rating (0-100), Mustard, Wild", "setting": "wild mustard; Postemergence", "result": 65}, {"measurement": "Plant response rating (0-100), Mustard, Wild", "setting": "wild mustard; Preemergence", "result": 100}, {"measurement": "Plant response rating (0-100), Canarygrass", "setting": "littleseed canarygrass; Postemergence", "result": 40}, {"measurement": "Plant response rating (0-100), Canarygrass", "setting": "littleseed canarygrass; Preemergence", "result": 50}, {"measurement": "Plant response rating (0-100), Chickweed", "setting": "common chickweed; Postemergence", "result": 60}, {"measurement": "Plant response rating (0-100), Chickweed", "setting": "common chickweed; Preemergence", "result": 100}, {"measurement": "Plant response rating (0-100), Kochia", "setting": "kochia; Postemergence", "result": 75}, {"measurement": "Plant response rating (0-100), Kochia", "setting": "kochia; Preemergence", "result": 75}, {"measurement": "Plant response rating (0-100), Lambsquarters", "setting": "lambsquarters; Postemergence", "result": 65}, {"measurement": "Plant response rating (0-100), Lambsquarters", "setting": "lambsquarters; Preemergence", "result": 95}]}, {"smiles": "CCNC(=O)c1ccc(F)c(NC(=O)c2cc(C(C)(C)C)nn2CC)c1", "note": "[Compound 2, 3-(1,1-dimethylethyl)-1-ethyl-N-[5-[(ethylamino)carbonyl]-2-fluorophenyl]-1H-pyrazole-5-carboxamide]", "values": [{"measurement": "Response of wheat, With 1% naphthalic anhydride seed treatment", "setting": "wheat cv. Retical; postemergence, 62 g a.i./ha", "result": 30}, {"measurement": "Response of wheat, Without naphthalic anhydride seed treatment", "setting": "wheat cv. Retical; postemergence, 62 g a.i./ha", "result": 60}, {"measurement": "Response of wheat, With 1% naphthalic anhydride seed treatment", "setting": "wheat cv. Retical; postemergence, 125 g a.i./ha", "result": 65}, {"measurement": "Response of wheat, Without naphthalic anhydride seed treatment", "setting": "wheat cv. Retical; postemergence, 125 g a.i./ha", "result": 75}, {"measurement": "Response of wheat, With 1% naphthalic anhydride seed treatment", "setting": "wheat cv. Retical; preemergence, 62 g a.i./ha", "result": 50}, {"measurement": "Response of wheat, Without naphthalic anhydride seed treatment", "setting": "wheat cv. Retical; preemergence, 62 g a.i./ha", "result": 62}, {"measurement": "Response of wheat, With 1% naphthalic anhydride seed treatment", "setting": "wheat cv. Retical; preemergence, 125 g a.i./ha", "result": 72}, {"measurement": "Response of wheat, Without naphthalic anhydride seed treatment", "setting": "wheat cv. Retical; preemergence, 125 g a.i./ha", "result": 82}]}]}
